# “Also recorded” adds a separate entry of the source. Where a name gives a salt, the structure may show the parent alone.
# Target: T1, endogenous AR with a mutation (T877A), LNCaP cells (Homo sapiens, UniProt P10275, T878A)
# T1 construct: that each express endogenous AR; endogenous in cells; host or cells: LNCaP
# T1 sequence (P10275 1-920 T878A): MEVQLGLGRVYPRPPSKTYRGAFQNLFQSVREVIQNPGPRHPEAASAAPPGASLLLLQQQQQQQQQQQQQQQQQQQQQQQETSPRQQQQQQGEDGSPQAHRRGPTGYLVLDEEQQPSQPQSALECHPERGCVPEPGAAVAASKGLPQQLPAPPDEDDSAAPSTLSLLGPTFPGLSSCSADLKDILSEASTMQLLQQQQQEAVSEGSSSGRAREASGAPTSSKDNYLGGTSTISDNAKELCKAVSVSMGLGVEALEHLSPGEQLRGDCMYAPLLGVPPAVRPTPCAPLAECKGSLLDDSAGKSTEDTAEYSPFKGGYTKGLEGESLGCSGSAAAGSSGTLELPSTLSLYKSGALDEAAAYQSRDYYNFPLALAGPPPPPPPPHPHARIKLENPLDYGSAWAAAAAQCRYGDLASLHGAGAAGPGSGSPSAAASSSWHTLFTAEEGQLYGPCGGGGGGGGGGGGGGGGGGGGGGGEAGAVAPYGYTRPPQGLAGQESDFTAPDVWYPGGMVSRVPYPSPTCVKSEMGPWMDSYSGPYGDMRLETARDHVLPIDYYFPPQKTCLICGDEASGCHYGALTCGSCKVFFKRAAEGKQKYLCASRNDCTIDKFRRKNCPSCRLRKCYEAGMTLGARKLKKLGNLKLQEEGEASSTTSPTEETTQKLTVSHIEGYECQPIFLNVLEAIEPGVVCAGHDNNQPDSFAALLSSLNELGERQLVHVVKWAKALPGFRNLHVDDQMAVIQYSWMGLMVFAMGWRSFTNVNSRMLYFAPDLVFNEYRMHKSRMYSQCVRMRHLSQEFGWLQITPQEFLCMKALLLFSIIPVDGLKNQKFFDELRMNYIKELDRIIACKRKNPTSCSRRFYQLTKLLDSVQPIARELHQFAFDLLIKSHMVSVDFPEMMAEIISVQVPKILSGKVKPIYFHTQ
# Assay: PSA-luciferase reporter assay in LNCaP cells with DHT
# Type: cell-based
# Description: Cells were transfected with two reporter plasmids, a PSA-luciferase construct (androgen responsive), and an SV40-renilla luciferase construct as an internal control. The following day, the cells were split and drugs added in the presence of 3 nM DHT. Luciferase production was measured the following day (Dual luciferase assay kit, Promega).
# Synergism can be defined as a combination index of less than one, using the non-exclusive assumption described by Chou et al. (Chou, T. C. and P. Talalay, Quantitative analysis of dose-effect relationships: the combined effects of multiple drugs or enzyme inhibitors. Adv Enzyme Regul, 1984. 22: p. 27-55).
smiles,measurement,setting,value
"Cc1nccc2c1[nH]c1cc(O)ccc12 [HH, harmol hydrochloride]",IC50,"LNCaP cells, 3 nM DHT",127 nM
same,Mode of antagonism: effect on DHT dose-response of PSA-luciferase,"LNCaP, DHT titrated, moderate dose of each inhibitor, hydrochloride",inhibited maximal DHT-induced activation; also recorded: pattern consistent with a non-competitive antagonist
